According to article PMC3706879, “The neurotrophic compound J147 reverses cognitive impairment in aged Alzheimer's disease mice” (Alzheimer's Research & Therapy, 2013):

Legend:
[1] = tested on: BDNF; parameters: method as in PMID 21343524; conditions: rat traumatic brain injury models; cited from earlier work
[2] = tested on: C57BL/6J mice; experiment: Y-maze, scopolamine induced memory impairment; type: in vivo; conditions: scopolamine 1 mg/kg i.p.; J147 200 ppm, donepezil 20 ppm in food for two weeks
Procedure: (§1) A total of 60 male mice aged eight weeks were housed 4 per cage and were divided into five groups with 12 mice per group. Treatments were administered in the food (TestDiet® 5015, Richmond, IN, USA) for a period of two weeks before commencement of behavioral testing. […] Following two weeks of treatment, memory impairment was induced by intraperitoneal (i.p.) injection of scopolamine (1 mg/kg) 30 minutes prior to each of the following behavioral tests: Y-maze, probe trial of the water maze and contextual and cued fear conditioning. Mice were allowed to rest for two days between each behavior test. All mice received scopolamine except for one of the control groups, which received saline as a control. Mice were sacrificed 24 hours after the last behavioral test for tissue harvesting.
Spontaneous alternation, the tendency to alternate free choices in a Y-maze (three arms), is a model for studying short term working memory in mice. Mice were injected with 1 mg/kg of scopolamine or saline 30 minutes prior to testing. Then each mouse was placed in the center of the Y and arm entries were recorded by video camera and the order of entries were recorded for the first 15 entries. Spontaneous alternations are defined as consecutive triplets of different arm choices.

[3] = tested on: C57BL/6J mice; experiment: two-day water maze, scopolamine induced memory impairment; type: in vivo; conditions: scopolamine 1 mg/kg i.p.; J147 200 ppm, donepezil 20 ppm in food for two weeks
Procedure: as §1
Spatial memory was determined using the two-day water maze in 23-month-old huAPPswe/PS1 transgenic mice fed J147 at 200 ppm in food for the previous three months. The protocol was adapted from a publication by Gulinello and colleagues. Water temperature remained at 27°C throughout the experiment. […] The time it took each mouse to find the hidden platform was measured as escape latency. […] All trials were recorded using the EthoVision Software and statistics were computed using GraphPad Instat software (GraphPad Software, San Diego, CA, USA).

[4] = tested on: C57BL/6J mice; experiment: fear conditioning, scopolamine induced memory impairment; type: in vivo; conditions: scopolamine 1 mg/kg i.p.; J147 200 ppm, donepezil 20 ppm in food; vs scopolamine
Procedure: as §1
Fear conditioning to either a cue or a context represents a form of associative learning. The read-out that is measured in contextual and cued fear conditioning is a freezing response that occurs following the pairing of an unconditioned stimulus (US), such as a foot shock, with a conditioned stimulus (CS), such as a particular context or cue (tone). The mouse will freeze if it remembers and associates that environment with the aversive stimulus. The hippocampus and the amygdala are required for fear memory where the hippocampus is involved in the formation and retrieval of context fear associations and the amygdala is involved in conditioning and recall of associations to contextual and discrete cues. This assay used fear conditioning chambers from Med Associates Inc. with Video Freeze Software (Med Associates Inc, St. Albans, VT, USA). On Day 1, mice were trained by allowing them to explore the chamber for 120 sec, mice were then presented with a 30-sec tone (2 kHz with 85 dB intensity) immediately followed by a 2-sec foot shock (0.7 mA). The tone-shock pairing was repeated following a 30-sec interval and the mice were again allowed to explore for 120 sec before removing them from the chamber. On Day 2, contextual memory, which requires a functioning hippocampus, was tested by placing the mice in the chambers and allowing them to explore for the same length of time as the previous day but without the tone and the shock. On Day 3, cued or emotional memory was tested, which relies on both hippocampus and amygdala. […] On Day 2, the time spent freezing is measured over the entire time in the chamber. […] The percentage of time spent freezing by each mouse is averaged per group and then groups can be compared and P-values calculated to determine statistical significance. On Day 3, the percentage of time spent freezing during the two tones is averaged per group, and then groups can be compared and P-values calculated to determine statistical significance. […]

| Structure (SMILES) | BDNF levels [1] | short-term working memory (spontaneous alternations, Y maze) [2] | spatial memory (time to find hidden platform) [3] | contextual memory (freezing Day 2) [4] | cued memory (freezing in response to the tone, Day 3) [4] |
| --- | --- | --- | --- | --- | --- |
| COc1cc(/C=C/c2cc(/C=C/c3ccc(O)c(OC)c3)n(-c3ccccc3)n2)ccc1O [CNB-001] | increases BDNF levels | – | – | – | – |
| COc1cc2c(cc1OC)C(=O)C(CC1CCN(Cc3ccccc3)CC1)C2 (centres unmarked) [donepezil, reference compound] | – | improve short-term working memory | failed to rescue the deficit | did not improve memory | neither effect was significant |
